Results from PubChem BioAssay AID328 (DTP/NCI, 2004).
Where “and” joins values, the source holds several entries; their conditions need not be identical. Equal values may be shown once. Toxic doses and inconclusive results are not listed.

Test system: BDF1 mice, P388 leukemia ip, median survival T/C
Assay: NCI In Vivo Anticancer Drug Screen. Data for tumor model P388 Leukemia (intraperitoneal) in B6D2F1 (BDF1) mice
Details: endpoint: median survival time, higher = longer survival
In short: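 Reported as T/C, where T is the survival measurement in dosed animals and C the same measurement in vehicle controls.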

[1] = dose: 100.0 mg/kg/injection, schedule: Q01DX009 (ip), vehicle: saline with Tween-80
[2] = dose: 6.25 mg/kg/injection, schedule: Q01DX009 (ip), vehicle: Klucel (hydroxypropylcellulose) (HPC)
[3] = dose: 12.5 mg/kg/injection, schedule: Q01DX009 (ip), vehicle: Klucel (hydroxypropylcellulose) (HPC)
[4] = dose: 25.0 mg/kg/injection, schedule: Q01DX009 (ip), vehicle: saline with Tween-80

O=c1c2ccccc2[nH]c2c([N+](=O)[O-])ccc(Oc3cccc(C(F)(F)F)c3)c12
T/C (dose: 100.0 mg/kg/injection, schedule: Q04DX002 (ip), vehicle: saline with Tween-80): 90 % of control | T/C (dose: 200.0 mg/kg/injection, schedule: Q04DX002 (ip), vehicle: saline with Tween-80): 102 % of control | T/C (dose: 400.0 mg/kg/injection, schedule: Q04DX002 (ip), vehicle: saline with Tween-80): 92 % of control

C1=NCCCN1
T/C (dose: 25.0 mg/kg/injection, schedule: Q04DX003 (ip), vehicle: saline): 100 % of control | T/C (dose: 50.0 mg/kg/injection, schedule: Q04DX003 (ip), vehicle: saline): 100 % of control | T/C (dose: 100.0 mg/kg/injection, schedule: Q04DX003 (ip), vehicle: saline): 100 % of control

CCOC(=O)CCC(C(=O)OCC)C(=O)OCC
T/C [1]: 107 % of control | T/C (dose: 100.0 mg/kg/injection, schedule: Q04DX003 (ip), vehicle: saline with Tween-80): 91 % of control | T/C (dose: 200.0 mg/kg/injection, schedule: Q01DX009 (ip), vehicle: saline with Tween-80): 100 % of control | T/C (dose: 200.0 mg/kg/injection, schedule: Q04DX003 (ip), vehicle: saline with Tween-80): 100 % of control | T/C (dose: 400.0 mg/kg/injection, schedule: Q01DX009 (ip), vehicle: saline with Tween-80): 92 % of control | T/C (dose: 400.0 mg/kg/injection, schedule: Q04DX003 (ip), vehicle: saline with Tween-80): 95 % of control

Cc1ccc(S(=O)(=O)N/N=C/C(=O)O)cc1
T/C [2]: 113 % of control and 111 % of control | T/C (dose: 6.25 mg/kg/injection, schedule: Q01DX009 (ip), vehicle: other): 112 % of control | T/C [3]: 124 % of control | T/C (dose: 50.0 mg/kg/injection, schedule: Q01DX009 (ip), vehicle: Klucel (hydroxypropylcellulose) (HPC)): 191 % of control and 169 % of control and 185 % of control | T/C (dose: 100.0 mg/kg/injection, schedule: Q01DX009 (ip), vehicle: Klucel (hydroxypropylcellulose) (HPC)): 90 % of control and 101 % of control | T/C (dose: 400.0 mg/kg/injection, schedule: Q01DX009 (ip), vehicle: Klucel (hydroxypropylcellulose) (HPC)): 114 % of control

C[n+]1ccc2cc(N)c3c4ccccc4sc3c2c1
T/C (dose: 3.12 mg/kg/injection, schedule: Q01DX009 (ip), vehicle: saline with Tween-80): 110 % of control and 119 % of control | T/C (dose: 3.13 mg/kg/injection, schedule: Q01DX009 (ip), vehicle: Klucel (hydroxypropylcellulose) (HPC)): 116 % of control | T/C [2]: 123 % of control | T/C (dose: 6.25 mg/kg/injection, schedule: Q04DX003 (ip), vehicle: saline with Tween-80): 105 % of control | T/C [3]: 156 % of control | T/C (dose: 12.5 mg/kg/injection, schedule: Q04DX003 (ip), vehicle: saline with Tween-80): 112 % of control | T/C (dose: 25.0 mg/kg/injection, schedule: Q01DX009 (ip), vehicle: Klucel (hydroxypropylcellulose) (HPC)): 170 % of control and 184 % of control | T/C [4]: 172 % of control | T/C (dose: 25.0 mg/kg/injection, schedule: Q04DX003 (ip), vehicle: saline with Tween-80): 112 % of control

O=[N+]([O-])c1cccc2c[n+](Cc3ccc(Br)cc3)ccc12
T/C (dose: 12.5 mg/kg/injection, schedule: Q01DX009 (ip), vehicle: saline with Tween-80): 123 % of control

O=C(CNC(=O)n1ccnc1)N/N=C/c1ccccc1O
T/C (dose: 50.0 mg/kg/injection, schedule: Q01DX005 (ip), vehicle: saline with Tween-80): 102 % of control | T/C (dose: 100.0 mg/kg/injection, schedule: Q01DX005 (ip), vehicle: saline with Tween-80): 98 % of control | T/C (dose: 200.0 mg/kg/injection, schedule: Q01DX005 (ip), vehicle: saline with Tween-80): 100 % of control

O=[N+]([O-])c1cc([N+](=O)[O-])c2ccccc2c1NS(=O)(=O)/C=C/c1ccccc1
T/C [4]: 104 % of control | T/C (dose: 50.0 mg/kg/injection, schedule: Q01DX009 (ip), vehicle: saline with Tween-80): 112 % of control | T/C [1]: 111 % of control

O=C1C=CN(C2OC(CO)C(O)C2O)C(=O)C1 (stereo unspecified)
T/C (dose: 22.0 mg/kg/injection, schedule: Q01DX009 (ip), vehicle: saline): 103 % of control | T/C (dose: 33.0 mg/kg/injection, schedule: Q01DX009 (ip), vehicle: saline): 107 % of control | T/C (dose: 50.0 mg/kg/injection, schedule: Q01DX009 (ip), vehicle: saline): 87 % of control and 101 % of control (2×) | T/C (dose: 75.0 mg/kg/injection, schedule: Q01DX009 (ip), vehicle: saline): 110 % of control | T/C (dose: 100.0 mg/kg/injection, schedule: Q01DX009 (ip), vehicle: saline): 87 % of control | T/C (dose: 200.0 mg/kg/injection, schedule: Q01DX009 (ip), vehicle: saline): 91 % of control | T/C (dose: 400.0 mg/kg/injection, schedule: Q01DX009 (ip), vehicle: saline): 100 % of control
